# Assay results taken from patent publication US10640534B2 (Agios Pharmaceuticals, Inc., priority 2012, dated 2020).
# Test system: U87MG cells
# Experiment: Cellular assay, inhibition of 2-HG production in U87MG cells
# Type: cell-based
# Settings: Homo sapiens, U-87 MG, 48 h
# Summary of the method: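 HT1080 or U87MG cells (U87MG kept with 500 ug/mL G418) seeded at 5000 cells/well and treated with compound at 0.2% final DMSO. Incubated 48 h at 37 °C. 2-HG inhibition determined by LC-MS. Viability read by CellTiter-Glo luminescence at 72 h post-dose.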
row,IC50,SMILES
1,< 100 nM,"CC(C)(O)c1cc(F)cc(N(C(=O)[C@@H]2CCOC(=O)N2c2cc(C#N)ccn2)[C@H](C(=O)NC2CC(F)(F)C2)c2ccccc2Cl)c1 [Compound 146, (S)—N—((S)-1-(2-Chlorophenyl)-2-(3,3-difluorocyclobutylamino)-2-oxoethyl)-3-(4-cyanopyridin-2-yl)-N-(3-fluoro-5-(2-hydroxypropan-2-yl)phenyl)-2-oxo-1,3-oxazinane-4-carboxamide]"
2,< 100 nM,"N#Cc1ccnc(N2C(=O)CC[C@H]2C(=O)N(c2cccc(OCCO)c2)[C@H](C(=O)NC2CC(F)(F)C2)c2ccccc2Cl)c1 (single isomer, unassigned) [Compound 130]"
3,< 100 nM,O=C(NC1CCCCC1)[C@H](c1ccccc1Cl)N(C(=O)[C@@H]1CCC(=O)N1c1ncccn1)c1cccc(F)c1 [Compound 7]
4,< 100 nM,"N#Cc1ccnc(N2C(=O)CCC[C@H]2C(=O)N(c2cccc(F)c2)[C@H](C(=O)NC2CCC(F)(F)CC2)c2ccccc2Cl)c1 [Compound 75, (S)—N—((S)-1-(2-Chlorophenyl)-2-((4,4-difluorocyclohexyl)amino)-2-oxoethyl)-1-(4-cyano-pyridin-2-yl)-N-(3-fluorophenyl)-6-oxopiperidine-2-carboxamide]"
5,< 100 nM,"CN(C)S(=O)(=O)c1cccc(N(C(=O)[C@@H]2CCC(=O)N2c2cc(C#N)ccn2)[C@H](C(=O)NC2CC(F)(F)C2)c2ccccc2Cl)c1 [Compound 156, (S)—N—((S)-1-(2-Chlorophenyl)-2-(3,3-difluorocyclobutylamino)-2-oxoethyl)-1-(4-cyanopyridin-2-yl)-N-(3-(N,N-dimethylsulfamoyl)phenyl)-5-oxopyrrolidine-2-carboxamide]"
6,< 100 nM,"N#Cc1ccnc(N2C(=O)CC[C@H]2C(=O)N(c2cc(F)cc(F)c2)C(C(=O)NC2CC(F)(F)C2)c2cccc(Cl)c2Cl)c1 (stereo partly drawn) [Compound 195, (2S)-1-(4-Cyanopyridin-2-yl)-N-(1-(2,3-dichlorophenyl)-2-(3,3-difluoro-cyclobutylamino)-2-oxoethyl)-N-(3,5-difluorophenyl)-5-oxopyrrolidine-2-carboxamide]"
7,< 100 nM,"N#Cc1ccnc(N2C(=O)CC[C@H]2C(=O)N(c2cccc(F)c2)[C@H](C(=O)NC2CC(F)(F)C2)c2ccccc2)c1 [Compound 138, (S)-1-(4-Cyanopyridin-2-yl)-N—((S)-2-((3,3-difluorocyclobutyl)amino)-2-oxo-1-phenylethyl)-N-(3-fluorophenyl)-5-oxopyrrolidine-2-carboxamide]"
8,< 100 nM,"N#Cc1ccnc(N2C(=O)CC[C@H]2C(=O)N(c2cc(F)cc(F)c2)[C@H](C(=O)NC2CC(F)(F)C2)c2ccccc2Cl)n1 [Compound 86, (S)—N—((S)-1-(2-Chlorophenyl)-2-((3,3-difluorocyclobutyl)amino)-2-oxoethyl)-1-(4-cyanopyrimidin-2-yl)-N-(3,5-difluorophenyl)-5-oxopyrrolidine-2-carboxamide]"
9,< 100 nM,"CS(=O)(=O)c1cc(F)cc(N(C(=O)[C@@H]2CCC(=O)N2c2cc(C#N)ccn2)C(C(=O)NC2CCC(F)(F)CC2)c2ccccc2Cl)c1 (stereo partly drawn) [Compound 105, (2S)—N-(1-(2-Chlorophenyl)-2-((4,4-difluorocyclohexyl)amino)-2-oxoethyl)-1-(4-cyanopyridin-2-yl)-N-(3-fluoro-5-(methylsulfonyl)phenyl)-5-oxopyrrolidine-2-carboxamide]"
10,< 100 nM,"N#Cc1ccnc(N2C(=O)[C@H](O)C[C@H]2C(=O)N(c2cc(F)cc(F)c2)[C@@H](C(=O)NC2CCC(F)(F)CC2)c2ccccc2Cl)c1 [Compound 124, (2S,4R)—N—((R)-1-(2-Chlorophenyl)-2-(4,4-difluorocyclohexylamino)-2-oxoethyl)-1-(4-cyanopyridin-2-yl)-N-(3,5-difluorophenyl)-4-hydroxy-5-oxopyrrolidine-2-carboxamide]"
